# Test results published in patent publication US7622128B2, “Porphyromonas gingivalis 1435/1449 LPS as an immune modulator” (priority 2005, dated 2009).
# System: mouse bone marrow cells
# Assay: Activation of bone marrow cells from TLR knockout mice (intracellular TNF-α staining, FACS)
# Assay type: cell-based
# Settings: TLR2−/−, TLR4−/− and TLR2/4−/− cells
# Experimental: The ability of this P. gingivalis LPS preparation to activate mouse bone marrow cells obtained from TLR2^−/−, TLR4^−/−, and TLR2/4^−/− knockout mice was examined to determine if endogenous TLR2 and TLR4 were utilized. Activation was determined by intracellular TNF-α staining and fluorescence-activated cell sorter analysis.
substance,measurement,value
Pam3CSK4,TLR usage in bone marrow cells of knockout mice,utilized their respective cognate TLR
